Columns and labels:
[1] = Solubility in toluene at 25° C.; type: physicochemical; conditions: solvent toluene
[2] = Solubility in methyl ethyl ketone (MEK) at 25° C.; type: physicochemical; conditions: solvent MEK

| Compound | solubility in toluene at 25° C. [1] | solubility in methyl ethyl ketone (MEK) at 25° C. [2] |
| --- | --- | --- |
| OCCOc1ccc2ccccc2c1-c1c(OCCO)ccc2ccccc12 [BNE, 2,2′-bis(2-hydroxyethoxy)-1,1′-binaphthalene] | 0.1 g/(10 mL) | 0.75 g/(10 mL) |
| OCCOc1ccc(C2(c3ccc(OCCO)c(-c4ccccc4)c3)c3ccccc3-c3ccccc32)cc1-c1ccccc1 [BPPEF, 9,9-bis[4-(2-hydroxyethoxy)-3-phenylphenyl]fluorene] | 0.05 g/(10 mL) | 4.5 g/(10 mL) |
| OCCOc1ccc2cc(-c3ccccc3)ccc2c1-c1c(OCCO)ccc2cc(-c3ccccc3)ccc12 [DP, 2,2′-bis(2-hydroxyethoxy)-6,6′-diphenyl-1,1′-binaphthalene] | 0.3 g/(10 mL) | 0.3 g/(10 mL) |

Reference: patent US20240376286A1, “DIHYDROXY COMPOUND MANUFACTURING METHOD AND RECYCLED RESIN MANUFACTURING METHOD” (MITSUBISHI GAS CHEMICAL COMPANY, INC., priority 2021, published 2024)
